Laboratory results reported in patent US20230114728A1 (Venatorx Pharmaceuticals, Inc., priority 2019, published 2023).
In brackets after ≈: the same amount, converted by molar mass.

Legend:
Assay in all cases: Broth microdilution MIC in CAMHB
Format in all cases: cell-based
P. aeruginosa ATCC 27853 = conditions: Pseudomonas aeruginosa, ATCC27853; MHB; read-out: Minimum Inhibitory Concentration, P. aeruginosa ATCC 27853
Protocol: (§1) Example III: In Vitro Antibacterial Assays
(§2) To determine the ability of test compounds to inhibit the growth of bacterial strains, classic cell based broth microdilution minimum inhibitory concentration (MIC) assays were employed. MIC assays are performed according to CLSI methods except where otherwise noted (CLSI, 2018 and CLSI, 2019). The reference type strain E. coli ATCC 25922; the wild-type parent strain E. coli AG100; the hyper-permeable E. coli 901C and E. coli D22; and the E. coli AG100A strain lacking the acrAB efflux pump encoding genes were used to determine the ability of the PBP inhibitors to penetrate the outer membrane of gram-negative bacteria and inhibit bacterial growth. […] The P. aeruginosa ATCC 27853 and A. baumannii ATCC 19606, along with the hyper-permeable P. aeruginosa ATCC 35151 and an engineered efflux pump-compromised strain of P. aeruginosa (ΔmexAB-oprM) were used to determine the ability of PBP inhibitors to penetrate the outer membrane of P. aeruginosa and A. baumannii and assess antibacterial activity against these important gram-negative organisms.
(§3) Briefly, cryo-preserved bacterial cultures of challenge strains are streaked for isolation on appropriate agar medium, in this case cation-adjusted Mueller Hinton agar. Following incubation to allow growth of the colonies, plates are sealed with parafilm and stored refrigerated for up to two weeks. For preparation of assay inoculum and to ensure low variability, at least 5 colonies are picked from the agar plates with an inoculating loop and aseptically transferred to a culture tube containing 3 mL of cation-adjusted Mueller Hinton broth (CAMHB). The broth culture is grown for 3-5 hours at 37° C. with shaking at 200 rpm. Meanwhile, 2-fold serial dilutions of test compounds are conducted in a 96-well plate with a final volume of 75 μL per well at 2-fold the final desired concentration. After the dilution plates are set up the growing cultures are then diluted in a cuvette containing CAMHB and the optical density is measured at 600 nm. The inoculum is diluted such that 75 μL of this culture in CAMHB results in a starting bacterial concentration of 2-8×10^5 CFU/mL when added to the dilution plates. The plates are incubated for 16-20 hours for Enterobacteriaceae and Pseudomonas and 20-24 hours for Acinetobacter at 37° C. The MIC values are read visually as the lowest concentration well with no bacterial growth.

E. coli ATCC 25922 = conditions: Escherichia coli, ATCC25922; MHB; E. coli ATCC 25922; read-out: Minimum Inhibitory Concentration, E. coli 25922
Protocol: as §1, §2, §3

[1] = system: K. pneumoniae SI-117 producing VIM-1; conditions: Klebsiella pneumoniae, read-out: Minimum Inhibitory Concentration, K. pneumoniae SI-117
Protocol: as §1, §2, §3

A. baumannii ATCC 19606 = conditions: Acinetobacter baumannii, ATCC19606; MHB; read-out: Minimum Inhibitory Concentration, A. baumannii ATCC 19606
Protocol: as §1, §2, §3

E. coli AG100 = conditions: Escherichia coli; MHB; wild-type parent strain E. coli AG100; read-out: Minimum Inhibitory Concentration, E. coli AG100
Protocol: as §1, §2, §3

[2] = system: K. pneumoniae UMM producing SHV-5 and KPC-2; conditions: Klebsiella pneumoniae, read-out: Minimum Inhibitory Concentration, K. pneumoniae UMM
Protocol: as §1, §2, §3

E. coli D22 = conditions: Escherichia coli; MHB; hyper-permeable E. coli D22; read-out: Minimum Inhibitory Concentration, E. coli D22
Protocol: as §1, §2, §3

E. coli AG100A = conditions: Escherichia coli, read-out: Minimum Inhibitory Concentration, E. coli AG100A
Protocol: as §1, §2, §3

E. coli 901C = conditions: Escherichia coli; MHB; hyper-permeable E. coli 901C; read-out: Minimum Inhibitory Concentration, E. coli 901C
Protocol: as §1, §2, §3

[3] = system: P. aeruginosa (ΔmexAB-oprM); conditions: Pseudomonas aeruginosa, read-out: Minimum Inhibitory Concentration, P. aeruginosa ΔmexAB-OprM
Protocol: as §1, §2, §3

P. aeruginosa ATCC 35151 = conditions: Pseudomonas aeruginosa, ATCC35151; MHB; hyper-permeable strain; read-out: Minimum Inhibitory Concentration, P. aeruginosa ATCC 35151
Protocol: as §1, §2, §3

[4] = system: K. pneumoniae 848844 producing SHV-11 and KPC-2; conditions: Klebsiella pneumoniae, read-out: Minimum Inhibitory Concentration, K. pneumoniae 848844
Protocol: as §1, §2, §3

| SMILES | MIC (P. aeruginosa ATCC 27853) [µg/mL] | MIC (E. coli ATCC 25922) [µg/mL] | MIC [1] [µg/mL] | MIC (A. baumannii ATCC 19606) [µg/mL] | MIC (E. coli AG100) [µg/mL] | MIC [2] [µg/mL] | MIC (E. coli D22) [µg/mL] | MIC (E. coli AG100A) [µg/mL] | MIC (E. coli 901C) [µg/mL] | MIC [3] [µg/mL] | MIC (P. aeruginosa ATCC 35151) [µg/mL] | MIC [4] [µg/mL] |
| --- | --- | --- | --- | --- | --- | --- | --- | --- | --- | --- | --- | --- |
| C[C@H]1CN(CCF)C(=O)C(=O)N1C(=O)NC(C(=O)N[C@H]1Cc2cccc(C(=O)O)c2OB1O)c1cc(F)c(O)c(F)c1F (stereo partly drawn) [Example 248] | > 128 | 8 to 16 (≈ 13.1 to 26.2 µM) | 0.5 to 1 (≈ 0.819 to 1.64 µM) | > 128 | 32 to 64 (≈ 52.4 to 105 µM) | < 0.25 | 8 to 16 (≈ 13.1 to 26.2 µM) | 32 to 64 (≈ 52.4 to 105 µM) | > 128 | 8 to 16 (≈ 13.1 to 26.2 µM) | 2 to 4 (≈ 3.28 to 6.55 µM) | 32 to 64 (≈ 52.4 to 105 µM) |
| O=C(O)c1cccc2c1OB(O)[C@@H](NC(=O)C(NC(=O)N1CCN(CCBr)C(=O)C1=O)c1ccc(O)c(F)c1F)C2 (stereo partly drawn) [Example 249, (3R)-3-(2-(4-(2-bromoethyl)-2,3-dioxopiperazine-1-carboxamido)-2-(2,3-difluoro-4-hydroxyphenyl)acetamido)-2-hydroxy-3,4-dihydro-2H-benzo[e][1,2]oxaborinine-8-carboxylic acid] | > 128 | 32 to 64 (≈ 50.1 to 100 µM) | 2 to 4 (≈ 3.13 to 6.26 µM) | > 128 | > 128 | < 0.25 | 32 to 64 (≈ 50.1 to 100 µM) | 32 to 64 (≈ 50.1 to 100 µM) | > 128 | 8 to 16 (≈ 12.5 to 25 µM) | 0.5 to 1 (≈ 0.782 to 1.56 µM) | 32 to 64 (≈ 50.1 to 100 µM) |
| CCN1CCN(C(=O)NC(C(=O)N[C@H]2Cc3cccc(C(=O)O)c3OB2O)c2ccc(P(=O)(O)O)cc2)C(=O)C1=O (stereo partly drawn) [Example 250, (3R)-3-(2-(4-ethyl-2,3-dioxopiperazine-1-carboxamido)-2-(4-phosphonophenyl)acetamido)-2-hydroxy-3,4-dihydro-2H-benzo[e][1,2]oxaborinine-8-carboxylic acid] | > 128 | 32 to 64 (≈ 54.4 to 109 µM) | 2 to 4 (≈ 3.4 to 6.8 µM) | 32 to 64 (≈ 54.4 to 109 µM) | > 128 | < 0.25 | 32 to 64 (≈ 54.4 to 109 µM) | > 128 | > 128 | 8 to 16 (≈ 13.6 to 27.2 µM) | 2 to 4 (≈ 3.4 to 6.8 µM) | > 128 |
| Nc1nc(C(=O)NC(C(=O)N[C@H]2Cc3cccc(C(=O)O)c3OB2O)c2c(F)cc(O)cc2F)cs1 (stereo partly drawn) [Example 251, (3R)-3-(2-(2-aminothiazole-4-carboxamido)-2-(2,6-difluoro-4-hydroxyphenyl)acetamido)-2-hydroxy-3,4-dihydro-2H-benzo[e][1,2]oxaborinine-8-carboxylic acid] | > 128 | > 128 | 8 to 16 (≈ 15.4 to 30.9 µM) | > 128 | > 128 | 2 to 4 (≈ 3.86 to 7.72 µM) | > 128 | > 128 | > 128 | 32 to 64 (≈ 61.7 to 123 µM) | 2 to 4 (≈ 3.86 to 7.72 µM) | > 128 |
